Measurements taken from patent publication US9931380B2, “Medicament for treating olfaction disorder” (priority 2015, dated 2018).

Key:
[1] = Blood sugar level of DM (STZ) mice given the insulin preparation; format: in vivo, C57BL/6 mice; conditions: intraperitoneally once a day, 2 to 3 U/kg of insulin detemir
Procedure: (§1) To C57BL/6 mice (normal mice; Japan SLC, Inc) at the age of 10 weeks, 120 mg/kg of streptozotocin (STZ; Sigma-Aldrich) was administered intraperitoneally for three days in a row, on Days 0 (Initial administration), 1, and 2. On Day 7, those with a fasting blood glucose (fasting blood sugar level: FBS) of 250 mg/dl or more were defined as DM mice in which pancreatic β cells were specifically impaired. Moreover, subsequent operations used those with a blood sugar of more than 250 mg/dl at any time after about one week since the administration of STZ.
As the insulin preparation, “Levemir FlexPen (Registered Trademark)” was used (referred to as Levemir). Levemir was administered intraperitoneally into DM mice once a day, with 2 to 3 U/kg of the insulin detemir each. […] The amount of insulin given here was therefore regarded as the amount that can properly resolve the shortages of insulin in the DM mice. The olfactory epithelium tissues of groups of DM mice (group a, group b, and group c) were observed 14 days after the administration of methimazole (Refer to FIGS. 9A and 9B): Each group differs on the time when insulin was additionally given. […] Then, with the use of the above-described method, the number of olfactory nerve cells (OSNs) of olfactory epithelium, the thickness of olfactory epithelium, and the number of OMP positive cells were counted in each group. […]

olfactory epithelium = test: Regeneration of olfactory epithelium in DM model mice with methimazole-induced olfactory disturbance after insulin administration; format: in vivo, C57BL/6 mice; conditions: for number of olfactory nerve cells, DM mice vs normal mice / thickness of olfactory epithelium, DM mice vs normal mice / number of mature olfactory nerve cells (number of OMP positive cells), DM mice vs normal mice: read 14 days after methimazole
Procedure: as §1
To each of positive control mice, which were created by giving only physiological saline to normal mice, and DM mice, 80 mg/kg of methimazole (Siyma-Aldrich) was administered intraperitoneally in order to create model mice with olfactory disturbance. The model mice with olfactory disturbance were created as metabolites of methimazole selectively damaged olfactory epithelium. The mechanism of olfactory disturbance is considered to be the activation of caspase that induces apoptosis in olfactory cells. When normal mice were given methimazole, the damaged olfactory epithelium could recover to the almost normal level about 28 days after the administration. Moreover, normal mice that were given physiological saline instead of methimazole were used as control. Their weight and blood sugar levels of tail veins were measured 28 days after the methimazole injection.
The hearts of mice were perfused with 4% paraformaldehyde in 0.1M phosphate buffer. The mice were sacrificed and fixed 24 hours later with the same fixative. Nostril tissues containing OE were decalcified with a 10% EDTA solution (pH 7.0), and were embedded in paraffin. Coronal sections (with thickness of 4 μm) were cut off and put on silane-coated slides. The deparaffinized sections were autoclaved for 10 minutes in Target Retrieval Solution (S1700; Dako) for antigen retrieval. Immunohistochemistry was conducted with one of the following antibodies: Anti-insulin receptors, anti-phosphorylated insulin receptors, anti-olfactory marker proteins (OMP, goat polyclonal, 1:4000 dilution; Wako Chemicals), anti-activated caspase-3 (rabbit polyclonal, 1:5000; Cell Signaling Technology), anti-Ki-67 (mouse monoclonal, 1:500; BD Biosciences), and anti-c-fos antibodies (Rabbit IgG, 1:1000; Santa Cruz Biotechnology).
In order to suppress the variation of data values that could be caused by anatomical changes (e.g. aerated nasal turbinate) between mice and in the mice, the OE analysis was conducted in such a way as to be limited to OE (olfactory epithelium) of the nasal septum and nasal turbinate's top on the right and left sides in the nasal cavity.
Sections were cut at intervals of 500 μm. The olfactory epithelium included the following two cell lines: Olfactory nerve cells (OSNs) and basal stem cells. Rectangular cells on lamina propria in OE were defined as basal cells. The rest of the cells were defined as OSNs. The thickness, or distance from the lamina propria to the surface, was measured with software known as ImageJ. The number of OSNs labeled with anti-OMP, anti-activated caspase-3, and anti-Ki-67 antibody was quantitatively analyzed by uniquely immunostaining for each antigen and using sections counterstained with hematoxylin. As for connective tissues under the lamina propria, the immunostaining of cells with an intermediate background intensity more than double the standard deviation was regarded as being positive. The number of OSNs and the number of immunostained cells (OMP-positive cells, Ki-67-positive cells, and caspase-3 positive cells) were measured along the total length of the nasal septum in microscopic observation images (of each of normal groups and STZ groups) for both the left and right sides. […]

[2] = group a: 3 U/kg i.p. day 1 to 14
[3] = group b as printed: 3 U/kg i.p. day 1 to 7
[4] = group b: 3 U/kg i.p. only day 1 to 7, 14 days after onset of disturbance
[5] = groups a (day 1 to 14) and c (day 7 to 14), 3 U/kg i.p., 14 days after onset of disturbance

insulin detemir [Levemir]
blood sugar levels [1]: around 130 mg/dl
number of olfactory nerve cells, DM mice vs normal mice (olfactory epithelium; [2]): no significant difference
thickness of olfactory epithelium, DM mice vs normal mice (olfactory epithelium; [2]): no significant difference
number of mature olfactory nerve cells (number of OMP positive cells), DM mice vs normal mice (olfactory epithelium; group a: 3 U/kg i.p. every day, day 1 to 14 after methimazole): broadly comparable to normal mice
number of olfactory nerve cells, DM mice vs normal mice (olfactory epithelium; [3]): no significant difference
thickness of olfactory epithelium, DM mice vs normal mice (olfactory epithelium; [3]): no significant difference
number of mature olfactory nerve cells (number of OMP positive cells), DM mice vs normal mice (olfactory epithelium; group b as printed: 3 U/kg i.p. only day 1 to 7 after methimazole): broadly comparable to normal mice
number of OMP positive cells, compared with groups a and c (olfactory epithelium; [4]): significant decreases
number of OSNs, compared with groups a and c (olfactory epithelium; [4]): significant decreases
thickness of olfactory epithelium, compared with groups a and c (olfactory epithelium; [4]): significant decreases
number of OMP positive cells (olfactory epithelium; [5]): no significant differences
number of OSNs (olfactory epithelium; [5]): no significant differences
thickness of olfactory epithelium (olfactory epithelium; [5]): no significant differences
